According to patent US8269017B2, “Compounds for the treatment of proliferative disorders” (Synta Pharmaceuticals Corporation, priority 2005, dated 2012):
Entries after “also recorded” stand apart in the source; their conditions may differ. Read-outs that look alike come from different tables or passages of the source. Values belong to the compound of their own block, whether it stands above or below them.

Legend:
SB cells = test: Induction of apoptosis in SB cells (Annexin V/PI, FACS); assay type: cell-based; conditions: 24 h; for % Apoptotic Cells Gated: 1 μM; for cytotoxicity at 1 µM: read-out: % Dead Cells Gated; for viability at 1 µM: read-out: % Live Cells Gated
Method: SB cells (2×10^5 cells/mL) were cultured in 12-well plates (2 mL/well) and were left untreated (negative control), treated with Taxol (positive control), or treated with a compound of the invention for 24 h at 37° C. After treatment, the cells were washed one time with 1×PBS and stained with FITC labeled anti-Annexin V and PI (10 μg/ml) for 15 min at room temperature. The cells were analyzed by FACSCalibur (Becton Dickinson).

MDA-435 = test: Cytotoxicity in MDA-435 tumor cells (Cell Counting Kit 8); assay type: cell-based; conditions: Homo sapiens, MDA435, MDA-435 cells, 70 h
Method: Tumor cell line, MDA-435, was seeded in 96-well plates at 1×10^4 cells/well in DMEM medium and treated with compounds at different concentrations. Taxol was used as a positive control. The cells were incubated at 37° C. for 70 h. Viability of the cells was measured with Cell Counting Kit 8 (Dojindo, Cat #CK04). IC50 of the compounds was determined by Five-Parameter Logistic equation.

[1] = tested on: α-tubulin-YFP labeled microtubules in MCF7-α-tubulin-YFP cells; test: Inhibition of tubulin polymerization in α-tubulin-YFP expressing cells (fluorescence imaging); assay type: cell-based
Method: Living cells were examined using a fluorescent microscope for α-tubulin-YFP expression.
CHO-α-tubulin-YFP or MCF7-α-tubulin-YFP cells were cultured in 2-well chambered cover-slips (Labtek (Campbell, Calif.) or Fisher Scientific) for 24 hours before treatment with a compound of the invention. For comparison of the effects of treatment on α-tubulin-YFP labeled microtubules with the compounds of the invention, CHO-α-tubulin-YFP or MCF7-α-tubulin-YFP cells were treated with the a compound of the invention, Taxol or equivalent concentrations of DMSO-containing media for various time periods before imaging. Tubulin-YFP fluorescence in living cells or fixed cells was captured using a standard filter for FITC and objectives of 20× or 60× magnification on a Nikon TE300 microscope with a Leica DC50 color digital camera (Leica, Bannockburn, Ill.) or a CoolSnap HQ monochrome CCD camera (Photonetrics, Tucson, Ariz.). The Leica DC50 and CoolSnapHQ cameras were controlled with Leica DC50 software and MetaVue/MetaMorph software, respectively (Universal Imaging Corp, Downingtown, Pa.).

MDA-435 cells = test: Cell cycle analysis in MDA-435 cells; assay type: cell-based, human; conditions: 20 h, Taxol 30 nM, Comp. 1 100 nM, Comp. 2 500 nM, Comp. 3 10 nM, Comp. 6 800 mM (so in the source), Comp. 46 50 nM
Method: MDA-435 cells were cultured in 6-well plates at 1×10^6 cells/well and were untreated (negative control), treated with Taxol (positive control), or treated with a compound of the invention at 37° C. for 20 h. The cells were detached with 1× trypsin and washed one time with PBS. Cycle TEST PLUS kit (BD PharMingen, Cat #340242) was used to stain the cells. Cell cycle was analyzed with FACScomp program (BS PharMingen).

[2] = tested on: MCF-7 (human breast carcinoma); test: In vitro cytotoxicity, MTS assay, MCF-7; assay type: cell-based; conditions: MCF7, MCF-7 (Breast Cancer), 72 hours
Method: (§1) The in vitro cytotoxicity of the compounds of the invention was determined in the following human cell lines: HL-60 (T-cell leukemia), MDA-435 and MCF-7 (human breast carcinoma), NCI-H460 and H29 (colon carcinoma), DU145 (prostate carcinoma), and MES-SA and MES-SA/DX5 (uterine sarcoma). MES-SA is a model of uterine sarcoma, and the cell are sensitive to a number of chemotherapeutic agents including doxorubicin, dactinomycin, mitomycin C, taxol and bleomycin, but resistant to vinblastine and cisplatin. MES-SA/Dx5 was established in the presence of increasing concentrations of doxorubicin. […] All cells were purchased from ATCC.
(§2) The cell lines were maintained in RPMI1640 (GIBCO) supplemented with 10% FCS, 100 units/mL penicillin, 100 ug/ml streptomycin, and 2 mM L-glutamine. Cells were split every third day and diluted to a concentration of 2×10^5 cells/mL one day before the experiment was performed. All experiments were performed on exponentially growing cell cultures. Cell densities were 2.5×10^4 cells/mL in all experiments.
(§3) Compounds of the invention were prepared by dissolving the compound at a concentration of 10 mM in 100% DMSO. Final concentrations 10, 1, 0.1, 0.01 and 0.001 μM were obtained by diluting the stock solution directly into the tissue culture medium.

HL-60 (T-cell leukemia) = test: In vitro cytotoxicity, MTS assay, HL-60; assay type: cell-based, human; conditions: 72 hours
Method: as §1, §2, §3

MES-SA (uterine sarcoma) = test: In vitro cytotoxicity, MTS assay, MES-SA; assay type: cell-based, human; conditions: MES-SA (Uterine Carcinoma), 72 hours
Method: as §1, §2, §3

H29 (colon carcinoma) = test: In vitro cytotoxicity, MTS assay, H29; assay type: cell-based; conditions: Homo sapiens, 72 hours
Method: as §1, §2, §3

[3] = tested on: MES-SA/DX5 (uterine sarcoma, MDR-1); test: cells; assay type: cell-based; conditions: Homo sapiens, MES/DX5 (MDR-1), MTS assay
Method: as §1, §2, §3

[4] = tested on: NCI-H460 (colon carcinoma); test: In vitro cytotoxicity, MTS assay, NCI-H460; assay type: cell-based; conditions: Homo sapiens, 72 hours
Method: as §1, §2, §3

[5] = tested on: DU145 (prostate carcinoma); test: In vitro cytotoxicity, MTS assay, DU145; assay type: cell-based; conditions: Homo sapiens, DU-145, 72 hours
Method: as §1, §2, §3

[6] = tested on: MDA-435 (human breast carcinoma); test: In vitro cytotoxicity, MTS assay, MDA-435; assay type: cell-based; conditions: MDA435, MDA-435 (Breast Cancer), 72 hours
Method: as §1, §2, §3

[7] = Body weight change in MDA-MB-435S xenograft study (Example 10); assay type: in vivo, nude mouse; conditions: i.v.
Method: (§4) Seven to eight week old, female Crl:CD-1-nuBR (nude) mice were obtained from Charles River Laboratories (Wilmington, Mass., USA). Animals were housed 4-5/cage in micro-isolators, with a 12 hr/12 hr light/dark cycle, acclimated for at least 1 week prior to use and fed normal laboratory chow ad libitum. Studies were conducted on animals between 8 and 10 weeks of age at implantation. To implant MDA-MB-4355 tumor cells into nude mice, the cells were trypsinized as above, washed in PBS and resusupended at a concentration of 50×10(6) cells/ml in PBS. Using a 27 gauge needle and 1 cc syringe, 0.1 ml of the cell suspension was injected into the corpus adiposum of nude mice. The corpus adiposum is a fat body located in the ventral abdominal vicera in the right quadrant of the abdomen at the juncture of the os coxae (pelvic bone) and the os femoris (femur).
(§5) Compounds were formulated in either D5W (Compounds 169 and 174) or DRD (Compound 178). For formulations in D5W, solutions of test articles were prepared by dissolving the appropriate amounts of each compound in 5% dextrose in water (Abbott Laboratories, North Chicago, Ill., USA) by sonication in an ultrasonic water bath. For formulations in DRD, stock solutions of test articles were prepared by dissolving the appropriate amounts of each compound in dimethyl sulfoxide (DMSO) by sonication in an ultrasonic water bath. Stock solutions were prepared weekly, stored at −20° C. and diluted fresh each day for dosing. A solution of 20% Cremophore RH40 (polyoxyl 40 hydrogenated castor oil; BASF Corp., Aktiengesellschaft, Ludwigshafen, Germany) in 5% dextrose in water (Abbott Laboratories, North Chicago, Ill., USA) was also prepared by first heating 100% Cremophore RH40 at 50-60° C. until liquefied and clear, diluting 1:5 with 100% D5W, reheating again until clear and then mixing well. This solution was stored at room temperature for up to 3 months prior to use. To prepare DRD formulations for daily dosing, DMSO stock solutions were diluted 1:10 with 20% Cremophore RH40. […]

[8] = tested on: human tumor cell line MDA-MB-435S; test: Nude mouse xenograft, MDA-MB-435S (Example 10); assay type: in vivo
Method: as §4
Tumors were then permitted to develop in vivo until the majority reached an average of 100-200 mm^3 in tumor volume, which typically required 2-3 weeks following implantation. […] Tumor volumes (V) were calculated by caliper measurement of the width (W), length (L) and thickness (T) of tumors using the following formula: V=0.5236×(L×W×T). Animals were randomized into treatment groups so that the median tumor volumes of each group were similar at the start of dosing. % T/C values, as a measure of efficacy, were determined as follows: • (i) If ΔT>0: % T/C=[…] • (ii) If ΔT<0: % T/C=(ΔT/T0)×100 • (iii) ΔT=Change in median tumor volume between start of dosing and the end of study. • (iv) ΔC=Change in median tumor volume between start of dosing and the end of study. • (v) T0=Median tumor volume at start of dosing.
as §5, with “use.” for “use. To prepare DRD formulations for daily dosing, DMSO stock solutions were diluted 1:10 with 20% Cremophore RH40.”

[9] = MCF7-α-tubulin-YFP cells treated with 1.0 μM compound
[10] = Homo sapiens, HL-60, HL60 (Leukemia), read-out: IC50
[11] = Compound 169 at 2 mg/kg, Compound 174 at 4.55 mg/kg body weight, i.v., 1 time/week, 3 doses

SMILES: CCc1cc(-c2oncc2-c2ccc(Br)cc2)c(O)cc1OC [Compound 6, 4-(4-Bromo-phenyl)-5-(2-hydroxy-4-methoxy-5-ethyl-phenyl)-isoxazole]
% Apoptotic Cells Gated (SB cells): 14.17% | cytotoxicity at 1 µM (SB cells): 17.3% | viability at 1 µM (SB cells): 59.2% | IC50 (MDA-435): 461 nM | Tubulin-YFP signal pattern in live cells [1, 9]: cytoplasmic pattern | Apoptotic Population (%) (MDA-435 cells): 10.59% | G0/G1 Phase (%) (MDA-435 cells): 18.45% | G2/M Phase (%) (MDA-435 cells): 35.96% | S Phase (%) (MDA-435 cells): 35.55%

SMILES: CCc1cc(-c2oncc2-c2ccc(I)cc2)c(O)cc1OC [Compound 4, 4-(4-Iodo-phenyl)-5-(2-hydroxy-4-methoxy-5-ethyl-phenyl)-isoxazole]
IC50 [2]: 50 nM | IC50 (HL-60 (T-cell leukemia); [10]): 50 nM | IC50 (MES-SA (uterine sarcoma); Homo sapiens, read-out: IC50): 50 nM | IC50 (H29 (colon carcinoma)): 50 nM | IC50 ([3]; MDR1, 72 h): 50 nM | IC50 [4]: 50 nM | % Apoptotic Cells Gated (SB cells): 19.05% | cytotoxicity at 1 µM (SB cells): 20.1% | viability at 1 µM (SB cells): 52.8% | IC50 [5]: 50 nM | IC50 (MDA-435): 232 nM | IC50 [6]: 50 nM

SMILES: COc1ccc(-c2cnoc2-c2cc(OC)c(OC)c(OC)c2)cc1NC(=O)CN.Cl [Compound 169, 2-Amino-N-{2-methoxy-5-[5-(3,4,5-trimethoxy-phenyl)-isoxazol-4-yl]-phenyl}-acetamide]
IC50 (HL-60 (T-cell leukemia); [10]): 7 nM | IC50 (MES-SA (uterine sarcoma); Homo sapiens, read-out: IC50): 3 nM | IC50 ([3]; MDR1, 72 h): 3 nM | overt toxicity (effect on body weights) ([7]; Compound 169 at 2 and 1 mg/kg, Compound 174 at 4.55 and 2.28 mg/kg body weight, 1 time per week, 3 doses): not overtly toxic; also recorded: not associated with overt toxicity | % T/C [8, 11]: 38% | in vivo growth rate of MDA-MB-435S tumors [8, 11]: substantially inhibited tumor growth; also recorded: substantially decreased the growth rate

SMILES: COc1ccc(-c2cnoc2-c2cc(OC)c(OC)c(OC)c2)cc1OP(=O)(O)O [Compound 178, Sodium 2-methoxy-5-[5-(3,4,5-trimethoxy-phenyl)-isoxazol-4-yl)-phenyl phosphate]
IC50 (HL-60 (T-cell leukemia); HL60 (Leukemia), phosphate): 22 nM | IC50 (MES-SA (uterine sarcoma); phosphate): 4 nM | overt toxicity (effect on body weights) ([7]; Compound 178 at 25, 37.5 or 50 mg/kg body weight, 3 times per week, phosphate): not overtly toxic; also recorded: not associated with overt toxicity | efficacy on in vivo growth of MDA-MB-435S tumors ([8]; i.v. 3 times per week, dose escalation: 3 doses at 25, 3 at 37.5, 3 at 50 mg/kg, efficacy at 37.5 and 50 mg/kg, phosphate): began to show moderate efficacy; also recorded: began to show modest efficacy

SMILES: COc1cc(-c2oncc2-c2ccc(Br)cc2)cc(OC)c1OC [Compound 1, 4-(4-Bromo-phenyl)-5-(3,4,5-trimethoxy-phenyl)-isoxazole]
% Apoptotic Cells Gated (SB cells): 18.36% | cytotoxicity at 1 µM (SB cells): 14.4% | viability at 1 µM (SB cells): 60.1% | IC50 (MDA-435): 132 nM | Tubulin-YFP signal pattern in live cells [1, 9]: cytoplasmic pattern | Apoptotic Population (%) (MDA-435 cells): 11.35% | G0/G1 Phase (%) (MDA-435 cells): 19.15% | G2/M Phase (%) (MDA-435 cells): 32.60% | S Phase (%) (MDA-435 cells): 37.60%

IC50 ([3]; MDR1, 72 hours, read-out: IC50): 10000 nM
SMILES: CC(=O)O[C@H]1C(=O)[C@@]2(C)[C@H]([C@H](OC(=O)c3ccccc3)[C@]3(O)C[C@H](OC(=O)[C@H](O)[C@@H](NC(=O)c4ccccc4)c4ccccc4)C(C)=C1C3(C)C)[C@]1(OC(C)=O)CO[C@@H]1C[C@@H]2O [Taxol, reference compound]
IC50 [2]: 5 nM | IC50 (HL-60 (T-cell leukemia); [10]): 5 nM | IC50 (MES-SA (uterine sarcoma); Homo sapiens, read-out: IC50): 5 nM | IC50 (H29 (colon carcinoma)): 10 nM | IC50 [4]: 5 nM | % Apoptotic Cells Gated (SB cells): 17.84% | cytotoxicity at 1 µM (SB cells): 12.5% | viability at 1 µM (SB cells): 63.7% | IC50 [5]: 5 nM | IC50 (MDA-435): 16 nM | IC50 [6]: 2 nM | Tubulin-YFP signal pattern in live cells ([1]; MCF7-α-tubulin-YFP cells treated with 0.1 μM Taxol): microtubule bundle formation | Apoptotic Population (%) (MDA-435 cells): 16.17% | G0/G1 Phase (%) (MDA-435 cells): 19.12% | G2/M Phase (%) (MDA-435 cells): 32.32% | S Phase (%) (MDA-435 cells): 32.93%

SMILES: COc1cc(-c2oncc2-c2ccc3c(c2)OCCO3)cc(OC)c1OC [Compound 46, 4-(2,3-Dihydro-benzo[1,4]dioxin-6-yl)-5-(3,4,5-trimethoxy-phenyl)-isoxazole]
IC50 [2]: 50 nM | IC50 (HL-60 (T-cell leukemia); [10]): 50 nM | IC50 (MES-SA (uterine sarcoma); Homo sapiens, read-out: IC50): 50 nM | IC50 (H29 (colon carcinoma)): 50 nM | IC50 ([3]; MDR1, 72 h): 50 nM | IC50 [4]: 50 nM | % Apoptotic Cells Gated (SB cells): 19.04% | cytotoxicity at 1 µM (SB cells): 17.3% | viability at 1 µM (SB cells): 51% | IC50 [5]: 100 nM | IC50 (MDA-435): 21 nM | IC50 [6]: 50 nM | Apoptotic Population (%) (MDA-435 cells): 9.88% | G0/G1 Phase (%) (MDA-435 cells): 19.67% | G2/M Phase (%) (MDA-435 cells): 28.18% | S Phase (%) (MDA-435 cells): 37.98%
